# Target: T1, TRPML1 (Homo sapiens, UniProt Q9GZU1)
# T1 construct: expressed in transfected cells; host or cells: HEK T-REx cells stably expressing GCaMP6f and TRPML1
# Test: Cellular TRPML1 assay (FLIPR, GCaMP6f calcium read-out)
# Assay type: cell-based
# Conditions: not given
# Outline: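 Read-out is GCaMP6f fluorescence over 300 s after compound addition in Ca2+-free Tyrode's buffer, final DMSO 0.5%, on FLIPR Tetra. Cells are HEK T-REx stably co-expressing the indicator and TRPML1, plated 24 h earlier in Optimem + 0.5% FBS and pre-incubated ~10 min at room temperature.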
# T1 sequence (Q9GZU1 whole entry): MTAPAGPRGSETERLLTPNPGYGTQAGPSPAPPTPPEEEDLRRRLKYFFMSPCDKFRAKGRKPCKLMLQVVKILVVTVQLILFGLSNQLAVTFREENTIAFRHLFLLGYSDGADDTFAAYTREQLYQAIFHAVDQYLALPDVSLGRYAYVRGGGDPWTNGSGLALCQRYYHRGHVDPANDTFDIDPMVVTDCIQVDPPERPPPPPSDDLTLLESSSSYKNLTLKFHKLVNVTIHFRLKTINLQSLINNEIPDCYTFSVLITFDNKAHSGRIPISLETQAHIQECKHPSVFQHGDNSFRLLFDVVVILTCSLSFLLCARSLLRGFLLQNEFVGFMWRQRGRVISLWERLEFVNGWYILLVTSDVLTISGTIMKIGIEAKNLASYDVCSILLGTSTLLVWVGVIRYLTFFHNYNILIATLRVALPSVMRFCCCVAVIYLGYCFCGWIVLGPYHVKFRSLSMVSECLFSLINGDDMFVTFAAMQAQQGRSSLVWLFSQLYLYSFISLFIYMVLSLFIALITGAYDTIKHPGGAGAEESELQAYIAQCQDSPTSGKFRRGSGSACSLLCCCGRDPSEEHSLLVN
row,Compound,EC50 [nM]
1,"O=C(Nc1cc(F)c(N2CC3CC(C3)C2)c(F)c1)c1nc(N2CCC3(COC3)C2)oc1CC(F)(F)F [Example 208, N-(4-(3-azabicyclo[3.1.1]heptan-3-yl)-3,5-difluorophenyl)-2-(2-oxa-6-azaspiro[3.4]octan-6-yl)-5-(2,2,2-trifluoroethyl)oxazole-4-carboxamide]",10 to 1000

# Same assay, conditions: HEKT-REx/GCaMP6f/TRPML1 cells, FLIPR TETRA, kinetic response over 300 seconds; read-out: TRPML1 FLIPR pEC50 (converted)
row,EC50 [nM],Compound
1,10 to 1000,"CCc1oc(N2CCCC2)nc1C(=O)Nc1cc(F)c(O[C@@H]2C[C@@H]3C[C@@H]3C2)c(Cl)c1 [Example 222, N-(4-(cis-bicyclo[3.1.0]hexan-3-yloxy)-3-chloro-5-fluorophenyl)-5-ethyl-2-(pyrrolidin-1-yl)oxazole-4-carboxamide]"
2,1000 to 10000,"O=C(Nc1ccc(OC2CC3C(C2)C3(F)F)c(F)c1)c1nc(N2CCCC2)oc1CC(F)(F)F (stereo not drawn) [Example 46, N-[4-({6,6-difluorobicyclo[3.1.0]hexan-3-yl}oxy)-3-fluorophenyl]-2-(pyrrolidin-1-yl)-5-(2,2,2-trifluoroethyl)oxazole-4-carboxamide]"
3,1000 to 10000,"O=C(Nc1cc(F)c(O[C@@H]2C[C@@H]3C[C@@H]3C2)c(F)c1)c1nc(N2CCOCC2)oc1CC(F)(F)F [Example 181, N-(4-(cis-bicyclo[3.1.0]hexan-3-yloxy)-3,5-difluorophenyl)-2-morpholino-5-(2,2,2-trifluoroethyl)oxazole-4-carboxamide]"
4,1000 to 10000,"O=C(Nc1ccc(OC2CCOCC2)c(F)c1)c1nc(N2CCCC2)oc1CC(F)(F)F [Example 56, N-[3-fluoro-4-(oxan-4-yloxy)phenyl]-2-(pyrrolidin-1-yl)-5-(2,2,2-trifluoroethyl)oxazole-4-carboxamide]"
5,10 to 1000,"CC1(C)CCCN(c2c(F)cc(NC(=O)c3nc(N4CCCC4)oc3CC(F)(F)F)cc2F)C1 [Example 213, N-(4-(3,3-dimethylpiperidin-1-yl)-3,5-difluorophenyl)-2-(pyrrolidin-1-yl)-5-(2,2,2-trifluoroethyl)oxazole-4-carboxamide]"
6,1000 to 10000,"O=C(Nc1ccc(O[C@@H]2COCC2(F)F)c(F)c1)c1nc(N2CCCC2)oc1CC(F)(F)F [Example 49, (R)—N-(4-((4,4-difluorotetrahydrofuran-3-yl)oxy)-3-fluorophenyl)-2-(pyrrolidin-1-yl)-5-(2,2,2-trifluoroethyl)oxazole-4-carboxamide]"
7,10000 to 100000,"O=C(Nc1cc(F)c(CN2CC3CC3C2)c(F)c1)c1nc(N2CCCC2)oc1CC(F)(F)F (stereo not drawn) [Example 218, N-(4-{3-azabicyclo [3.1.0]hexan-3-ylmethyl}-3,5-difluorophenyl)-2-(pyrrolidin-1-yl)-5-(2,2,2-trifluoroethyl)-1,3-oxazole-4-carboxamide]"
8,1000 to 10000,"CN(c1ccc(NC(=O)c2nc(N3CCCC3)oc2CC(F)(F)F)cc1F)C1CC2CC2C1 (stereo not drawn) [Example 80, N-(4-{bicyclo[3.1.0]hexan-3-yl(methyl)amino}-3-fluorophenyl)-2-(pyrrolidin-1-yl)-5-(2,2,2-trifluoroethyl)oxazole-4-carboxamide]"
9,1000 to 10000,"CN(c1c(F)cc(NC(=O)c2nc(N3CCCC3)oc2CC(F)(F)F)cc1F)C1CCCC1(F)F (stereo not drawn) [Example 81, N-{4-[(2,2-difluorocyclopentyl)(methyl)amino]-3,5-difluorophenyl}-2-(pyrrolidin-1-yl)-5-(2,2,2-trifluoroethyl)oxazole-4-carboxamide]"
10,10 to 1000,"O=C(Nc1cc(F)c(OCC23CC(C2)C3)c(F)c1)c1nc(N2CCCC2)oc1CC(F)(F)F [Example 136, N-(4-(bicyclo[1.1.1]pentan-1-ylmethoxy)-3,5-difluorophenyl)-2-(pyrrolidin-1-yl)-5-(2,2,2-trifluoroethyl)oxazole-4-carboxamide]"
11,10 to 1000,"O=C(Nc1cc(F)c(OC2CC3CCC2C3)c(F)c1)c1nc(N2CCCC2)oc1CC(F)(F)F (stereo not drawn) [Example 141, N-(4-(bicyclo[2.2.1]heptan-2-yloxy)-3,5-difluorophenyl)-2-(pyrrolidin-1-yl)-5-(2,2,2-trifluoroethyl)oxazole-4-carboxamide]"
12,1000 to 10000,"O=C(Nc1ccc(N2CCCCC2)c(F)c1)c1nc(N2C[C@H]3CCO[C@H]3C2)oc1CC(F)(F)F [Example 26, 2-[(3aR,6aR)-hexahydro-5H-furo[2,3-c]pyrrol-5-yl]-N-[3-fluoro-4-(piperidin-1-yl)phenyl]-5-(2,2,2-trifluoroethyl)oxazole-4-carboxamide]"
13,10 to 1000,"CCC1(CC)CN(c2nc(C(=O)Nc3cc(F)c(N4CCC5CC5C4)c(F)c3)c(CC(F)(F)F)o2)C1 (stereo not drawn) [Example 211, N-(4-(3-azabicyclo[4.1.0]heptan-3-yl)-3,5-difluorophenyl)-2-(3,3-diethylazetidin-1-yl)-5-(2,2,2-trifluoroethyl)oxazole-4-carboxamide]"
14,1000 to 10000,"O=C(Nc1ccc(OC2CCCOC2)c(F)c1)c1nc(N2CCCC2)oc1CC(F)(F)F (stereo not drawn) [Example 66, N-[3-fluoro-4-(oxan-3-yloxy)phenyl]-2-(pyrrolidin-1-yl)-5-(2,2,2-trifluoroethyl)oxazole-4-carboxamide]"
15,10 to 1000,"CC1(C)CN(c2nc(C(=O)Nc3cc(F)c(OC4CCCOC4)c(F)c3)c(CC(F)(F)F)o2)C1 (racemic) [Example 72, N-(3,5-difluoro-4-((tetrahydro-2H-pyran-3-yl)oxy)phenyl)-2-(3,3-dimethylazetidin-1-yl)-5-(2,2,2-trifluoroethyl)oxazole-4-carboxamide]"

# The remaining lines, values behind:
row,Compound,EC50 [nM]
1,"N#CC1CN(c2nc(C(=O)Nc3ccc(OC4CCCC4(F)F)c(F)c3)c(CC(F)(F)F)o2)C1 (stereo not drawn) [Example 2, 2-(3-cyanoazetidin-1-yl)-N-{4-[(2,2-difluorocyclopentyl)oxy]-3-fluorophenyl}-5-(2,2,2-trifluoroethyl)-1,3-oxazole-4-carboxamide]",1000 to 10000
2,"CCCc1oc(N2CCCC2)nc1C(=O)Nc1ccc(OC2CCCC2(F)F)c(F)c1 (stereo not drawn) [Example 110, N-(4-((2,2-difluorocyclopentyl)oxy)-3-fluorophenyl)-5-propyl-2-(pyrrolidin-1-yl)oxazole-4-carboxamide]",1000 to 10000
3,"CCC1(CC)CN(c2nc(C(=O)Nc3cnc(OC4CC5C[C@H]5C4)c(F)c3)c(CC(F)(F)F)o2)C1 (stereo partly drawn) [Example 191, N-(6-(cis-bicyclo[3.1.0]hexan-3-yloxy)-5-fluoropyridin-3-yl)-2-(3,3-diethylazetidin-1-yl)-5-(2,2,2-trifluoroethyl)oxazole-4-carboxamide]",1000 to 10000
4,"O=C(Nc1ccc(OC2CC(F)(F)C2)c(F)c1)c1nc(N2CCCC2)oc1CC(F)(F)F [Example 44, N-[4-(3,3-difluorocyclobutoxy)-3-fluorophenyl]-2-(pyrrolidin-1-yl)-5-(2,2,2-trifluoroethyl)oxazole-4-carboxamide]",1000 to 10000
5,"O=C(Nc1ccc(OC2CCCC2(F)F)c(F)c1)c1nc(N2C3CCC2CC3)oc1CC(F)(F)F (stereo not drawn) [Example 9, 2-{7-azabicyclo[2.2.1]heptan-7-yl}-N-{4-[(2,2-difluorocyclopentyl)oxy]-3-fluorophenyl}-5-(2,2,2-trifluoroethyl)oxazole-4-carboxamide]",1000 to 10000
6,"COC1(C)CN(c2nc(C(=O)Nc3ccc(O[C@@H]4C[C@@H]5C[C@@H]5C4)c(C#N)c3)c(CC(F)(F)F)o2)C1 [Example 146, N-(4-(cis-bicyclo[3.1.0]hexan-3-yloxy)-3-cyanophenyl)-2-(3-methoxy-3-methylazetidin-1-yl)-5-(2,2,2-trifluoroethyl)oxazole-4-carboxamide]",1000 to 10000
7,"CCc1oc(-n2cccn2)nc1C(=O)Nc1cc(F)c(O[C@@H]2C[C@@H]3C[C@@H]3C2)c(F)c1 [Example 232, N-(4-(cis-bicyclo[3.1.0]hexan-3-yloxy)-3,5-difluorophenyl)-5-ethyl-2-(1H-pyrazol-1-yl)oxazole-4-carboxamide]",1000 to 10000
8,"O=C(Nc1ccc(OC2CCCC2(F)F)c(F)c1)c1nc(N2CC(F)(F)C2)oc1CC(F)(F)F (stereo not drawn) [Example 16, 2-(3,3-difluoroazetidin-1-yl)-N-{4-[(2,2-difluorocyclopentyl)oxy]-3-fluorophenyl}-5-(2,2,2-trifluoroethyl)oxazole-4-carboxamide]",10 to 1000
9,"CCC1(CC)CN(c2nc(C(=O)Nc3cc(F)c(O[C@@H]4C[C@@H]5C[C@@H]5C4)c(F)c3)c(C)o2)C1 [Example 273, N-(4-(cis-bicyclo[3.1.0]hexan-3-yloxy)-3,5-difluorophenyl)-2-(3,3-diethylazetidin-1-yl)-5-methyloxazole-4-carboxamide]",10 to 1000
10,"CCc1oc(N2CCCC2)nc1C(=O)Nc1cc(C)c(NC2CC3CC(C3)C2)c(F)c1 (stereo not drawn) [Example 252, N-(4-(bicyclo[3.1.1]heptan-3-ylamino)-3-fluoro-5-methylphenyl)-5-ethyl-2-(pyrrolidin-1-yl)oxazole-4-carboxamide]",1000 to 10000
11,"CC(C)OC1CN(c2nc(C(=O)Nc3ccc(OC4CCCC4(F)F)c(F)c3)c(CC(F)(F)F)o2)C1 (stereo not drawn) [Example 24, N-{4-[(2,2-difluorocyclopentyl)oxy]-3-fluorophenyl}-2-[3-(propan-2-yloxy)azetidin-1-yl]-5-(2,2,2-trifluoroethyl)oxazole-4-carboxamide]",1000 to 10000
12,"O=C(Nc1ccc(OC2CCCC2)c(F)c1)c1nc(N2C[C@H]3CCO[C@H]3C2)oc1CC(F)(F)F [Example 61, N-(4-(cyclopentyloxy)-3-fluorophenyl)-2-((3aR,6aR)-hexahydro-5H-furo[2,3-c]pyrrol-5-yl)-5-(2,2,2-trifluoroethyl)oxazole-4-carboxamide]",1000 to 10000
13,"CCC1(CC)CN(c2nc(C(=O)Nc3cc(F)c4c(c3)CCN4C3CC4CC4C3)c(CC(F)(F)F)o2)C1 (stereo not drawn) [Example 311, N-(1-(bicyclo[3.1.0]hexan-3-yl)-7-fluoroindolin-5-yl)-2-(3,3-diethylazetidin-1-yl)-5-(2,2,2-trifluoroethyl)oxazole-4-carboxamide]",1000 to 10000
14,"COCC1CCN(c2nc(C(=O)Nc3ccc(OC4CCCC4(F)F)c(F)c3)c(CC(F)(F)F)o2)C1 (stereo not drawn) [Example 7, N-(4-((2,2-difluorocyclopentyl)oxy)-3-fluorophenyl)-2-(3-(methoxymethyl)pyrrolidin-1-yl)-5-(2,2,2-trifluoroethyl)oxazole-4-carboxamide]",1000 to 10000

# From US12098145B2 (Libra Therapeutics, Inc., priority 2022, dated 2024)
